Results reported in patent publication US20230112484A1, “COMPOSITIONS FOR CROP PROTECTION” (Agrematch Ltd., priority 2020, published 2023).

Columns and labels:
Assay type in all cases: in vivo
[1] = test system: Amaranthus palmeri; assay: Soil germination (Example 1); settings: for Amaranthus palmeri soil germination: score 0 = complete germination inhibition, 100 = no effect; for soil germination of Amaranthus palmeri, result in words: concentration not given
Procedure: (§1) Compounds were dissolved in DMSO and then in distilled water to get 0.01-2 mg/ml solution with 1% or 2% DMSO. 1% or 2% DMSO solution in water was used as a negative control. As a positive control, 0.1 or 0.2 mg/ml oxyfluorfen (Galigan) solution was used.
(§2) Flowerpots were filled with 30 g of soil, and 4-5 seeds were sowed in each flowerpot. Each treatment contained 3 flowerpots. Each flowerpot was sprayed with 1.5 ml of the dissolved compound. Soil was let dry for about 1 hour at room conditions, and then each flowerpot was sub-irrigated with 40 ml water and incubated under conditions provided below.
(§3) Amaranthus palmeri was incubated at 25° C. for 8 hr in dark, followed by 16 hr at 30° C. in light. Lolium rigidum was incubated at 21° C. for 8 hr in dark, followed by 16 hr at 21° C. in light. Germination was assessed and scored after 4-7 days. Scoring scale: 0—complete germination inhibition, 100—no effect.

[2] = test system: Lolium rigidum; assay: Soil germination (Example 1); settings: for Lolium rigidum soil germination: score 0 = complete germination inhibition, 100 = no effect; for soil germination of Lolium rigidum, result in words: concentration not given
Procedure: as §1, §2, §3

[3] = test system: Abutilon theophrasti; assay: Soil germination (Example 3); settings: 0.1 mg/ml; score 0 = complete germination inhibition, 100 = no effect; after 7 days
Procedure: (§4) Compounds were dissolved in DMSO and then in distilled water to get 0.1 or 0.5 mg/ml solution with 2% DMSO. 2% DMSO solution in water was used as a negative control. No positive control was used in this assay. Flowerpots were filled with 30 g of soil, each treatment contained three flowerpots. Each flowerpot was sprayed with 1.5 ml of the dissolved compound. Soil was let dry for about 1 hour at room conditions, and then each flowerpot was sub-irrigated with 40 ml water and incubated at controlled growth chambers, under conditions provided on table 6. Gemination was assessed and scored after 7 days. Scoring scale: 0—complete germination inhibition, 100—no effect. [table]

[4] = test system: Amaranthus palmeri; assay: Soil germination (Example 3); settings: 0.1 mg/ml; score 0 = complete germination inhibition, 100 = no effect; after 7 days
Procedure: as §4

[5] = test system: Echinochloa colonum; assay: Soil germination (Example 3); settings: 0.1 mg/ml; score 0 = complete germination inhibition, 100 = no effect; after 7 days
Procedure: as §4

[6] = test system: Setaria adhaerens; assay: Soil germination (Example 3); settings: 0.1 mg/ml; score 0 = complete germination inhibition, 100 = no effect; after 7 days
Procedure: as §4

[7] = test system: Triticum vulgare; assay: Soil germination (Example 3); settings: 0.1 mg/ml; score 0 = complete germination inhibition, 100 = no effect; after 7 days
Procedure: as §4

[8] = test system: Zea mays; assay: Soil germination (Example 3); settings: 0.1 mg/ml; score 0 = complete germination inhibition, 100 = no effect; after 7 days
Procedure: as §4

[9] = test system: Amaranthus palmeri; assay: Residual activity greenhouse assay; settings: seeds sowed three weeks after pre-emergence application
From the text: Residual activity of Compound 1 and Compound 2 was examined in greenhouse assay. Three weeks after pre-emergence application, new Amaranthus palmeri seeds were sowed on the same pots and germination was followed.

[10] = test system: Triticum vulgare; assay: Foliar experiment (Example 2); settings: 0.1 mg/ml; score 0 = complete phytotoxic effect, 100 = no effect
Procedure: (§5) Compounds were dissolved in DMSO and then in distilled water to get 0.1 or 0.5 mg/ml solution with 2% DMSO. Break-Thru surfactant was added to a final concentration of 0.05%. Negative control—an aqueous solution of 2% DMSO and 0.05% Break-Thru. Positive control—2 mg/ml Glyphosate (Roundup). 1.5 ml of each compound solution were sprayed on the foliage of different plants, which were 6-16 days old at the day of the experiment. Each treatment contained 3 pots. Plants were let dry for about 15 minutes at room conditions, and then incubated at controlled growth chambers. Phytotoxicity was assessed and scored 4-10 days after applications. Scoring scale: 0—complete phytotoxic effect, 100—no effect. [table]

[11] = test system: Zea mays; assay: Foliar experiment (Example 2); settings: 0.1 mg/ml; score 0 = complete phytotoxic effect, 100 = no effect
Procedure: as §5

[12] = test system: Lolium rigidum; assay: Soil germination (Example 3); settings: 0.1 mg/ml; score 0 = complete germination inhibition, 100 = no effect; after 7 days
Procedure: as §4

[13] = test system: Amaranthus palmeri; assay: Pre-emergence application (Example 5); settings: score 0 = complete germination inhibition, 100 = no effect
Procedure: For pre-emergence application, compounds were dissolved in DMSO and then in distilled water to get 0.1-2 mg/ml solution with 2% DMSO. 2% DMSO solution in water was used as a negative control. As a positive control, 0.2 mg/ml oxyfluorfen ([…]) solution was used. For pre-emergence application, flowerpots were filled with 30 g of soil, and 4-5 Amaranthus palmeri seeds were sowed in each flowerpot. Each treatment contained 3 flowerpots. Each flowerpot was sprayed with 1.5 ml of the dissolved compound. Soil was let dry for about 1 hour at room conditions, and then each flowerpot was sub-irrigated with 40 ml water and incubated under conditions provided below. Amaranthus palmeri was incubated at 25° C. for 8 hr in dark, followed by 16 hr at 30° C. in light. Germination was assessed and scored after 4-7 days. Scoring scale: 0-complete germination inhibition, 100-no effect.

[14] = test system: Amaranthus palmeri; assay: Post-emergence application (Example 5); settings: score 0 = complete phytotoxic effect, 100 = no effect
Procedure: as §5, with “For post-emergence application, compounds” for “Compounds”, “0.05-2” for “0.1 or 0.5”, “(Roundup). For post-emergence application,” for “(Roundup).”, “Amaranthus palmeri,” for “different plants,”, “10” for “6-16”, “effect.” for “effect. [table]”

[15] = test system: Setaria viridis; assay: Herbicidal effect against Setaria viridis (Example 5); settings: for Herbicidal effect against Setaria viridis, result in words: in vivo
[16] = 2 mg/ml, 4-10 days after application

## CC(Cl)/C=C/C(=O)N(CC(C)C)CC(C)C (centres unmarked) [Compound 1]
[1]; 0.01 mg/ml
  Amaranthus palmeri soil germination: 80
[1]; 0.025 mg/ml
  Amaranthus palmeri soil germination: 30
[1]; 0.05 mg/ml
  Amaranthus palmeri soil germination: 0
[1]; 0.1 mg/ml
  Amaranthus palmeri soil germination: 0
[1]; 0.25 mg/ml
  Amaranthus palmeri soil germination: 0
[1]
  soil germination of Amaranthus palmeri, result in words: active
[2]; 0.5 mg/ml
  Lolium rigidum soil germination: 60
[2]
  soil germination of Lolium rigidum, result in words: active
[3]
  Herbicidal activity, soil germination, Abutilon theophrasti: 100
[4]
  Herbicidal activity, soil germination, Amaranthus palmeri: 0
[5]
  Herbicidal activity, soil germination, Echinochloa colonum: 100
[6]
  Herbicidal activity, soil germination, Setaria adhaerens: 60
[7]
  Herbicidal activity, soil germination, Triticum vulgare: 100
[8]
  Herbicidal activity, soil germination, Zea mays: 100
[9]
  Residual activity: germination of newly sowed Amaranthus palmeri seeds: germination was observed

## CC(Cl)/C=C/C(=O)N(Cc1ccc(Cl)nc1)CC(C)C (centres unmarked) [Compound 2]
[1]; 0.01 mg/ml
  Amaranthus palmeri soil germination: 60
[1]; 0.025 mg/ml
  Amaranthus palmeri soil germination: 50
[1]; 0.05 mg/ml
  Amaranthus palmeri soil germination: 0
[1]; 0.1 mg/ml
  Amaranthus palmeri soil germination: 0
[10]
  Herbicidal activity, foliar, Triticum vulgare: 90
[11]
  Herbicidal activity, foliar, Zea mays: 90
[3]
  Herbicidal activity, soil germination, Abutilon theophrasti: 100
[4]
  Herbicidal activity, soil germination, Amaranthus palmeri: 0
[5]
  Herbicidal activity, soil germination, Echinochloa colonum: 100
[12]
  Herbicidal activity, soil germination, Lolium rigidum: 90
[6]
  Herbicidal activity, soil germination, Setaria adhaerens: 80
[7]
  Herbicidal activity, soil germination, Triticum vulgare: 100
[8]
  Herbicidal activity, soil germination, Zea mays: 100
[9]
  Residual activity: germination of newly sowed Amaranthus palmeri seeds: no germination was observed

## CC(F)/C=C/C(=O)N(Cc1ccc(Cl)nc1)CC(C)C (centres unmarked) [Compound 3]
[1]; 0.1 mg/ml
  Amaranthus palmeri soil germination: 30

## Cc1ccsc1CN(CC(C)C)C(=O)/C=C/C(C)Cl (centres unmarked) [Compound 6]
[1]; 0.1 mg/ml
  Amaranthus palmeri soil germination: 100
[1]; 0.25 mg/ml
  Amaranthus palmeri soil germination: 100
[1]; 0.5 mg/ml
  Amaranthus palmeri soil germination: 100
[1]; 1 mg/ml
  Amaranthus palmeri soil germination: 70
[1]; 2 mg/ml, after 4-7 days
  Amaranthus palmeri soil germination: 0
[1]
  soil germination of Amaranthus palmeri, result in words: active
[2]; 2 mg/ml
  Lolium rigidum soil germination: 30
[2]
  soil germination of Lolium rigidum, result in words: active

## CC#CCN(CC(C)C)C(=O)/C=C/C(C)Cl (centres unmarked) [Compound 7]
[13]; 0.1 mg/ml
  Pre-emergence Amaranthus palmeri herbicidal activity: 10
[13]; 0.25 mg/ml
  Pre-emergence Amaranthus palmeri herbicidal activity: 5
[13]; 2 mg/ml, after 4-7 days
  Pre-emergence Amaranthus palmeri herbicidal activity: 0
[14]; [16]
  Post-emergence Amaranthus palmeri herbicidal activity: 40

## CCC#CCN(CC(C)C)C(=O)/C=C/C(C)Cl (centres unmarked) [Compound 8]
[13]; 0.1 mg/ml
  Pre-emergence Amaranthus palmeri herbicidal activity: 100
[13]; 0.25 mg/ml
  Pre-emergence Amaranthus palmeri herbicidal activity: 40
[13]; 2 mg/ml, after 4-7 days
  Pre-emergence Amaranthus palmeri herbicidal activity: 0
[14]; [16]
  Post-emergence Amaranthus palmeri herbicidal activity: 30

## CCOCC#CCN(CC(C)C)C(=O)/C=C/C(C)Cl (centres unmarked) [Compound 9]
[13]; 0.1 mg/ml
  Pre-emergence Amaranthus palmeri herbicidal activity: 60
[13]; 0.25 mg/ml
  Pre-emergence Amaranthus palmeri herbicidal activity: 50
[13]; 2 mg/ml, after 4-7 days
  Pre-emergence Amaranthus palmeri herbicidal activity: 0
[14]; [16]
  Post-emergence Amaranthus palmeri herbicidal activity: 80

## C#CCOCC#CCN(CC(C)C)C(=O)/C=C/C(C)Cl (centres unmarked) [Compound 10]
[13]; 0.1 mg/ml
  Pre-emergence Amaranthus palmeri herbicidal activity: 100
[13]; 0.25 mg/ml
  Pre-emergence Amaranthus palmeri herbicidal activity: 5
[13]; 2 mg/ml, after 4-7 days
  Pre-emergence Amaranthus palmeri herbicidal activity: 0
[14]; [16]
  Post-emergence Amaranthus palmeri herbicidal activity: 70

## CC(Cl)/C=C/C(=O)N(CC(C)C)CC(F)(F)F (centres unmarked) [Compound 11]
[13]; 0.1 mg/ml
  Pre-emergence Amaranthus palmeri herbicidal activity: 15
[13]; 0.25 mg/ml
  Pre-emergence Amaranthus palmeri herbicidal activity: 5
[13]; 2 mg/ml, after 4-7 days
  Pre-emergence Amaranthus palmeri herbicidal activity: 0
[14]; [16]
  Post-emergence Amaranthus palmeri herbicidal activity: 60

## CC(Cl)/C=C/C(=O)N(CCC(C)C)Cc1ccc(Cl)nc1 (centres unmarked) [Compound 12]
[13]; 0.1 mg/ml
  Pre-emergence Amaranthus palmeri herbicidal activity: 20
[13]; 0.25 mg/ml
  Pre-emergence Amaranthus palmeri herbicidal activity: 5
[14]; 0.05 mg/ml
  Post-emergence Amaranthus palmeri herbicidal activity: 0
[14]; 0.075 mg/ml
  Post-emergence Amaranthus palmeri herbicidal activity: 0
[15]
  Herbicidal effect against Setaria viridis, result in words: moderate herbicidal effect

## CC(Cl)/C=C/C(=O)N(Cc1ccc(C#N)nc1)CC(C)C (centres unmarked) [Compound 13]
[13]; 0.1 mg/ml
  Pre-emergence Amaranthus palmeri herbicidal activity: 30
[13]; 0.25 mg/ml
  Pre-emergence Amaranthus palmeri herbicidal activity: 0
[14]; 0.05 mg/ml
  Post-emergence Amaranthus palmeri herbicidal activity: 10
[14]; 0.075 mg/ml
  Post-emergence Amaranthus palmeri herbicidal activity: 0
[15]
  Herbicidal effect against Setaria viridis, result in words: moderate herbicidal effect

## CC(Cl)/C=C/C(=O)N(CCC(C)C)Cc1ccc(Cl)s1 (centres unmarked) [Compound 14]
[13]; 0.1 mg/ml
  Pre-emergence Amaranthus palmeri herbicidal activity: 20
[13]; 0.25 mg/ml
  Pre-emergence Amaranthus palmeri herbicidal activity: 5
[14]; 0.25 mg/ml
  Post-emergence Amaranthus palmeri herbicidal activity: 20
[14]; 0.5 mg/ml
  Post-emergence Amaranthus palmeri herbicidal activity: 20
[15]
  Herbicidal effect against Setaria viridis, result in words: moderate herbicidal effect

## CC(Cl)/C=C/C(=O)N(CCC(C)C)Cc1cnc(Cl)s1 (centres unmarked) [Compound 15]
[13]; 0.1 mg/ml
  Pre-emergence Amaranthus palmeri herbicidal activity: 20
[13]; 0.25 mg/ml
  Pre-emergence Amaranthus palmeri herbicidal activity: 0
[14]; 0.25 mg/ml
  Post-emergence Amaranthus palmeri herbicidal activity: 5
[14]; 0.5 mg/ml
  Post-emergence Amaranthus palmeri herbicidal activity: 0
[15]
  Herbicidal effect against Setaria viridis, result in words: moderate herbicidal effect

## CC(Cl)/C=C/C(=O)N(CCC(C)C)CCC(C)C (centres unmarked) [Compound 16]
[13]; 0.1 mg/ml
  Pre-emergence Amaranthus palmeri herbicidal activity: 10
[13]; 0.25 mg/ml
  Pre-emergence Amaranthus palmeri herbicidal activity: 0
[14]; 0.25 mg/ml
  Post-emergence Amaranthus palmeri herbicidal activity: 50
[14]; 0.5 mg/ml
  Post-emergence Amaranthus palmeri herbicidal activity: 10
[15]; applying to the area under cultivation
  Inhibition of Setaria viridis: more than 30%
[15]
  Herbicidal effect against Setaria viridis, result in words: very good herbicidal effect

## COc1ccc(CN(CC(C)C)C(=O)/C=C/[C@@H](C)Cl)cc1 [reference compound]
[1]; 0.1 mg/ml
  Amaranthus palmeri soil germination: substantially less active
[2]; 0.5 mg/ml
  Lolium rigidum soil germination: unable to reduce soil germination
